Source: patent US9233136B2, “4-amino-4-oxobutanoyl peptides as inhibitors of viral replication” (Achillion Pharmaceuticals, Inc., priority 2006, dated 2016)

These compounds were tested on Hepatitis C replicon in Huh-7 cells (assay: HCV replicon replication assay (NPT ELISA)). Settings: Hepatitis C virus, Huh-7, 72 h.
Type: cell-based
Experimental: Compounds claimed herein are tested for the ability to inhibit viral replication of the Hepatitis C replicon in cultured cells in which the HCV replicon construct has been incorporated. The HCV replicon system was described by Bartenschlager, et. al (Science, 285, pp. 110-113 (1999)). The replicon system is predictive of in vivo anti-HCV activity; compounds that are active in humans uniformly evidence activity in the replicon assay.
In this assay HCV replicon containing cells are treated with different concentrations of the test compound to ascertain the ability of the test compound to suppress replication of the HCV replicon. As a positive control, HCV replicon-containing cells are treated with different concentrations of interferon alpha, a known inhibitor of HCV replication. The replicon assay system includes Neomycin Phosphotransferase (NPT) as a component of the replicon itself in order to detect the transcription of replicon gene products in the host cell. Cells in which the HCV replicon is actively replicating have high levels of NPT; the level of NPT is proportional to HCV replication. […] The NPT level of each sample is measured using a captured ELISA.
A protocol for testing compounds for the ability to inhibit viral replication of the Hepatitis C replicon cultured cells in which the replicon construct has been incorporated, follows.
The HCV replicon contains, 5′-3′, the HCV-IRES, the neomycin phosphotransferase (neo) gene, the IRES of encephalomyocarditis virus, which directs translation of HCV sequences NS3 to NS5B, and the 3′-NTR. The sequence of the HCV replicon has been deposited in GenBank (Accession no. AJ242652).
The replicon is transfected into Huh-7 cells using standard methods such as electroporation.
The cells are then seeded onto 96-well plates at a density of 6000-7500 cells/100 microliters/well (6-7.5×10^5 cells/10 ml/plate). The plates are then incubated at 37° C. in a 5% CO2 incubator.
HCV replicon-containing cells are rinsed with once PBS once; 2 mls of trypsin are then added. Cells are incubated at 37° C. in a 5% CO2 incubator for 3-5 minutes. 10 mls of complete medium is added to stop the reaction. Cells are blown gently, put into a 15 ml tube, and spun at 1200 rpm for four minutes. The trypsin/medium solution is removed and 5 mls of medium (500 ml DMEM (high glucose)) from BRL catalog #12430-054; 50 mls 10% FBS, 5% Geneticin G418 (50 mg/ml, BRL catalog #10131-035), 5 ml MEM non-essential amino acids (100×BRL #11140-050) and 5 ml pen-strep (BRL #15140-148) is added. The cells and media are mixed carefully
Cells are plated with screening medium (500 ml DMEM (BRL #21063-029), 50 ml FBS (BRL #10082-147) and 5 ml MEM non-essential amino acid (BRL #11140-050) at 6000-7500 fcells/100 μl/well of 96 well plate (6-7.5×10^5 cells/10 ml/plate). Plates are placed into 37° C. 5% CO2 incubator overnight.
The following morning, drugs (test compounds or interferon alpha) are diluted in 96 well U bottom plates with media or DMSO/media, depending on the final concentration chosen for screening. Generally for 6 concentrations of each test compounds ranging from 10 micromolar to 0.03 micromolar are applied. 100 μl of the test compound dilution is placed in wells of the 96 well plate containing the HCV replicon cells. Media without drug is added to some wells as a negative controls. DMSO is known to affect cell growth. Therefore, if drugs diluted in DMSO are used, all wells, including negative control (media only) and positive control (interferon alpha) wells, must contain the same concentration of DMSO, for single dose screening. The plates are incubated at 37° C. in a humidified 5% CO2 environment for three days.
On day four, the NTPII assay is quantitated. The medium is poured from the plates and the plates are washed once in 200 μl of PBS. The PBS is then decanted and the plates tapped in a paper towel to remove any remaining PBS. […]

SMILES | EC50 [µM]
C=CC1CC1(NC(=O)[C@@H]1C[C@@H](Oc2cc(-c3ccccc3)nc3cc(OC)ccc23)CN1C(=O)[C@@H](CC(=O)N1CCCCC1)C(C)(C)C)C(=O)O (stereo partly drawn) [Compound 41, 1-((2S,4R)-1-((S)-2-tert-butyl-4-oxo-4-(piperidin-1-yl)butanoyl)-4-(7-methoxy-2-phenylquinolin-4-yloxy)pyrrolidine-2-carboxamido)-2-vinylcyclopropanecarboxylic acid] | 1 to 10
C=CC1CC1(NC(=O)[C@@H]1C[C@@H](Oc2cc(-c3ccccc3)nc3cc(OC)ccc23)CN1C(=O)[C@@H](CC(=O)N1CCCCC1)C(C)(C)C)C(=O)OCC (stereo partly drawn) [Compound 40, ethyl 1-((2S,4R)-1-((S)-2-tert-butyl-4-oxo-4-(piperidin-1-yl)butanoyl)-4-(7-methoxy-2-phenylquinolin-4-yloxy)pyrrolidine-2-carboxamido)-2-vinylcyclopropanecarboxylate] | > 10
C=CC1CC1(NC(=O)[C@@H]1C[C@@H](Oc2cc(-c3ccccc3)nc3cc(OC)ccc23)CN1C(=O)[C@@H](CC(=O)N1CCCCC1C(N)=O)C(C)(C)C)C(=O)OCC (stereo partly drawn) [Compound 45, ethyl 1-((2S,4R)-1-((2S)-2-tert-butyl-4-(2-carbamoylpiperidin-1-yl)-4-oxobutanoyl)-4-(7-methoxy-2-phenylquinolin-4-yloxy)pyrrolidine-2-carboxamido)-2-vinylcyclopropanecarboxylate] | 1 to 10
COc1ccc2c(O[C@@H]3C[C@H]4C(=O)N[C@@]5(C(=O)NS(=O)(=O)C6CC6)C[C@@H]5/C=C\CCCCC[C@H](CC(=O)N5CCCCC5)C(=O)N4C3)cc(-c3ccccc3)nc2c1 [Compound 59, (2R,6R,13aR,14aS,16aS,Z)-N-(cyclopropylsulfonyl)-2-(7-methoxy-2-phenylquinolin-4-yloxy)-5,16-dioxo-6-(2-oxo-2-(piperidin-1-yl)ethyl)-1,2,3,5,6,7,8,9,10,11,13a,14,14a,15,16,16a-hexadecahydrocyclopropa[e]pyrrolo[1,2-a] [1,4]diazacyclopentadecine-14a-carboxamide] | < 0.1
C=C[C@@H]1C[C@]1(NC(=O)[C@@H]1C[C@@H](Oc2cc(-c3ccccc3)nc3cc(OC)ccc23)CN1C(=O)[C@@H](CC(=O)N1CCCCC1)C(C)(C)C)C(=O)NS(=O)(=O)C1CC1 [Compound 60, (2S,4R)-1-((S)-2-tert-butyl-4-oxo-4-(piperidin-1-yl)butanoyl)-N-((1R,2S)-1-(cyclopropylsulfonylcarbamoyl)-2-vinylcyclopropyl)-4-(7-methoxy-2-phenylquinolin-4-yloxy)pyrrolidine-2-carboxamide] | < 0.1
C=CC1CC1(NC(=O)[C@@H]1C[C@@H](Oc2cc(-c3ccccc3)nc3cc(OC)ccc23)CN1C(=O)[C@@H](CC(=O)N1CCCCC1C(N)=O)C(C)(C)C)C(=O)O (stereo partly drawn) [Compound 44, 1-((2S,4R)-1-((2S)-2-tert-butyl-4-(2-carbamoylpiperidin-1-yl)-4-oxobutanoyl)-4-(7-methoxy-2-phenylquinolin-4-yloxy)pyrrolidine-2-carboxamido)-2-vinylcyclopropanecarboxylic acid] | > 10
C=CC1CC1(NC(=O)[C@@H]1C[C@@H](Oc2cc(-c3ccccc3)nc3cc(OC)ccc23)CN1C(=O)[C@@H](CC(=O)N1CCN(C)CC1)C(C)(C)C)C(=O)O (stereo partly drawn) [Compound 43, 1-((2S,4R)-1-((S)-2-tert-butyl-4-(4-methylpiperazin-1-yl)-4-oxobutanoyl)-4-(7-methoxy-2-phenylquinolin-4-yloxy)pyrrolidine-2-carboxamido)-2-vinylcyclopropanecarboxylic acid] | > 10
COc1ccc2c(O[C@@H]3C[C@H]4C(=O)N[C@]5(C(=O)NS(=O)(=O)C6CC6)C[C@H]5/C=C\CCCCC[C@H](CC(=O)N5CCCCC5)C(=O)N4C3)cc(-c3ccccc3)nc2c1 [Compound 58, (2R,6R,13aS,14aR,16aS,Z)-N-(cyclopropylsulfonyl)-2-(7-methoxy-2-phenylquinolin-4-yloxy)-5,16-dioxo-6-(2-oxo-2-(piperidin-1-yl)ethyl)-1,2,3,5,6,7,8,9,10,11,13a,14,14a,15,16,16a-hexadecahydrocyclopropa[e]pyrrolo[1,2-a] [1,4]diazacyclopentadecine-14a-carboxamide] | < 0.1
C=CC1CC1(NC(=O)[C@@H]1C[C@@H](Oc2cc(-c3ccccc3)nc3cc(OC)ccc23)CN1C(=O)[C@@H](CC(=O)N1CCc2ccccc2C1)C(C)(C)C)C(=O)O (stereo partly drawn) [Compound 57, 1-((2S,4R)-1-((S)-2-tert-butyl-4-(3,4-dihydroisoquinolin-2(1H)-yl)-4-oxobutanoyl)-4-(7-methoxy-2-phenylquinolin-4-yloxy)pyrrolidine-2-carboxamido)-2-vinylcyclopropanecarboxylic acid] | > 10
C=CC1CC1(NC(=O)[C@@H]1C[C@@H](Oc2cc(-c3ccccc3)nc3cc(OC)ccc23)CN1C(=O)[C@@H](CC(=O)N1CCCC1)C(C)(C)C)C(=O)OCC (stereo partly drawn) [Compound 39, ethyl 1-((2S,4R)-1-((S)-2-tert-butyl-4-oxo-4-(pyrrolidin-1-yl)butanoyl)-4-(7-methoxy-2-phenylquinolin-4-yloxy)pyrrolidine-2-carboxamido)-2-vinylcyclopropanecarboxylate] | > 10
C=CC1CC1(NC(=O)[C@@H]1C[C@@H](Oc2cc(-c3ccccc3)nc3cc(OC)ccc23)CN1C(=O)[C@@H](CC(=O)N1CCC(O)C1)C(C)(C)C)C(=O)O (stereo partly drawn) [Compound 42, 1-((2S,4R)-1-((2S)-2-tert-butyl-4-(3-hydroxypyrrolidin-1-yl)-4-oxobutanoyl)-4-(7-methoxy-2-phenylquinolin-4-yloxy)pyrrolidine-2-carboxamido)-2-vinylcyclopropanecarboxylic acid] | > 10
C=CC1CC1(NC(=O)[C@@H]1C[C@@H](Oc2cc(-c3ccccc3)nc3cc(OC)ccc23)CN1C(=O)[C@@H](CC(=O)N1CCC(CNC(=O)OC(C)(C)C)CC1)C(C)(C)C)C(=O)O (stereo partly drawn) [Compound 46, 1-((2S,4R)-1-((S)-4-(4-((tert-butoxycarbonylamino)methyl)piperidin-1-yl)-2-tert-butyl-4-oxobutanoyl)-4-(7-methoxy-2-phenylquinolin-4-yloxy)pyrrolidine-2-carboxamido)-2-vinylcyclopropanecarboxylic acid] | > 10
C=CC1CC1(NC(=O)[C@@H]1C[C@@H](Oc2cc(-c3ccccc3)nc3cc(OC)ccc23)CN1C(=O)[C@@H](CC(=O)N1CCCc2ccccc21)C(C)(C)C)C(=O)O (stereo partly drawn) [Compound 56, 1-((2S,4R)-1-((S)-2-tert-butyl-4-(3,4-dihydroquinolin-1(2H)-yl)-4-oxobutanoyl)-4-(7-methoxy-2-phenylquinolin-4-yloxy)pyrrolidine-2-carboxamido)-2-vinylcyclopropanecarboxylic acid] | 1 to 10
C=CC1CC1(NC(=O)[C@@H]1C[C@@H](Oc2cc(-c3ccccc3)nc3cc(OC)ccc23)CN1C(=O)[C@@H](CC(=O)N1CCCC1)C(C)(C)C)C(=O)O (stereo partly drawn) [Compound 38, 1-((2S,4R)-1-((S)-2-tert-butyl-4-oxo-4-(pyrrolidin-1-yl)butanoyl)-4-(7-methoxy-2-phenylquinolin-4-yloxy)pyrrolidine-2-carboxamido)-2-vinylcyclopropanecarboxylic acid] | > 10
